Laboratory results reported in ChEMBL document CHEMBL1201862, “PubChem BioAssay data set” (2004).
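1) Cells in 96-well plates. 2) Compound, 48 h, 5 concentrations. 3) Linear interpolation between surrounding doses. 4) Unreached endpoint = highest concentration. GI50 is the concentration that inhibits growth by half.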 The source made the active and inactive calls. Cut-off read from the data, not from the text of the source: active = GI50 up to about 1.1 µM and inactive = higher.

Experiments:
Experiment in all cases: NCI-60 cell line screen, 48 h
DMS-114 = test system: DMS-114
LXFL 529 = test system: LXFL 529
LOX IMVI = test system: LOX IMVI
A549 = test system: A549
DMS-273 = test system: DMS-273
HCT-116 = test system: HCT-116
NCI-H23 = test system: NCI-H23
TK-10 = test system: TK-10
SK-MEL-28 = test system: SK-MEL-28
OVCAR-8 = test system: OVCAR-8
RXF 393 = test system: RXF 393
SK-OV-3 = test system: SK-OV-3
M19-MEL = test system: M19-MEL
OVCAR-4 = test system: OVCAR-4
HT-29 = test system: HT-29
COLO 205 = test system: COLO 205
CCRF-CEM = test system: CCRF-CEM
SK-MEL-5 = test system: SK-MEL-5
RXF 631 = test system: RXF 631
IGROV-1 = test system: IGROV-1
HOP-18 = test system: HOP-18
SR = test system: SR
SF-295 = test system: SF-295
NCI-H460 = test system: NCI-H460
SF-268 = test system: SF-268
DLD-1 = test system: DLD-1
SF-539 = test system: SF-539
ACHN = test system: ACHN
HOP-62 = test system: HOP-62
UACC-257 = test system: UACC-257
HCT-15 = test system: HCT-15
CAKI-1 = test system: CAKI-1
HL-60 = test system: HL-60
XF498 = test system: XF498
OVCAR-3 = test system: OVCAR-3
UACC-62 = test system: UACC-62
HCC 2998 = test system: HCC 2998
SW-620 = test system: SW-620
MOLT-4 = test system: MOLT-4
786-0 = test system: 786-0
OVCAR-5 = test system: OVCAR-5
K562 = test system: K562
SK-MEL-2 = test system: SK-MEL-2
UO-31 = test system: UO-31
EKVX = test system: EKVX
A498 = test system: A498
HOP-92 = test system: HOP-92
KM12 = test system: KM12
U-251 = test system: U-251
Malme-3M = test system: Malme-3M
SNB-75 = test system: SNB-75
RPMI-8226 = test system: RPMI-8226
SN12C = test system: SN12C
M14 = test system: M14
NCI-H226 = test system: NCI-H226
KM-20L2 = test system: KM-20L2
NCI-H522 = test system: NCI-H522
SNB-78 = test system: SNB-78
SNB-19 = test system: SNB-19

With `N#CC1=C(c2ccccc2)C(O)(c2ccccc2)NC1=O` (stereo not drawn) the GI50 (DMS-114) was > 100 µM (inactive), the GI50 (LXFL 529) was > 100 µM (inactive) and the GI50 (LOX IMVI) was > 100 µM (inactive). For the same compound, the GI50 (A549) was > 100 µM (inactive), the GI50 (DMS-273) was > 100 µM (inactive) and the GI50 (HCT-116) was > 100 µM (inactive). For the same compound, the GI50 (NCI-H23) was 42 µM (inactive), the GI50 (TK-10) was > 100 µM (inactive) and the GI50 (SK-MEL-28) was > 100 µM (inactive). For the same compound, the GI50 (OVCAR-8) was > 100 µM (inactive), the GI50 (RXF 393) was > 100 µM (inactive) and the GI50 (SK-OV-3) was 32.7 µM (inactive). The GI50 (M19-MEL) was > 100 µM (inactive), the GI50 (OVCAR-4) was > 100 µM (inactive) and the GI50 (HT-29) was 41.1 µM (inactive). The GI50 (COLO 205) was > 100 µM (inactive), the GI50 (CCRF-CEM) was 70.5 µM (inactive) and the GI50 (SK-MEL-5) was 68.1 µM (inactive). The GI50 (RXF 631) was 99.8 µM (inactive), the GI50 (IGROV-1) was > 100 µM (inactive) and the GI50 (HOP-18) was 31.7 µM (inactive). For the same compound, the GI50 (SR) was 44.2 µM (inactive), the GI50 (SF-295) was 37.4 µM (inactive) and the GI50 (NCI-H460) was 58.3 µM (inactive). For the same compound, the GI50 (SF-268) was > 100 µM (inactive), the GI50 (DLD-1) was 71.3 µM (inactive) and the GI50 (SF-539) was 27.7 µM (inactive). The GI50 (ACHN) was 37.5 µM (inactive), the GI50 (HOP-62) was > 100 µM (inactive) and the GI50 (UACC-257) was > 100 µM (inactive). For the same compound, the GI50 (HCT-15) was greater than 100 µM, the GI50 (CAKI-1) was > 100 µM (inactive) and the GI50 (HL-60) was > 100 µM (inactive). The GI50 (XF498) was > 100 µM (inactive), the GI50 (OVCAR-3) was > 100 µM (inactive) and the GI50 (UACC-62) was > 100 µM (inactive). The GI50 (HCC 2998) was > 100 µM (inactive), the GI50 (SW-620) was > 100 µM (inactive) and the GI50 (MOLT-4) was > 100 µM (inactive). For the same compound, the GI50 (786-0) was > 100 µM (inactive), the GI50 (OVCAR-5) was 39.3 µM (inactive) and the GI50 (K562) was > 100 µM (inactive). For the same compound, the GI50 (SK-MEL-2) was 99.1 µM (inactive), the GI50 (UO-31) was 82.8 µM (inactive) and the GI50 (EKVX) was > 100 µM (inactive). The GI50 (A498) was 24.6 µM (inactive), the GI50 (HOP-92) was 19.5 µM (inactive) and the GI50 (KM12) was > 100 µM (inactive). For the same compound, the GI50 (U-251) was > 100 µM (inactive), the GI50 (Malme-3M) was 25.2 µM (inactive) and the GI50 (SNB-75) was > 100 µM (inactive). For the same compound, the GI50 (RPMI-8226) was 75 µM (inactive), the GI50 (SN12C) was 48.3 µM (inactive) and the GI50 (M14) was 52.4 µM (inactive). The GI50 (NCI-H226) was 51.5 µM (inactive) and the GI50 (KM-20L2) was 47.5 µM (inactive).

For `NCCCN(CCCN)CCCNCc1c2ccccc2c(CNCCCN(CCCN)CCCN)c2ccccc12`, the GI50 (LXFL 529) was 10.5 µM (inactive), the GI50 (LOX IMVI) was 19.1 µM (inactive) and the GI50 (A549) was 24.3 µM (inactive). The GI50 (DMS-273) was 6.08 µM (inactive), the GI50 (HCT-116) was 14.9 µM (inactive) and the GI50 (NCI-H23) was 22.5 µM (inactive). For the same compound, the GI50 (TK-10) was 10.8 µM (inactive), the GI50 (SK-MEL-28) was 7.16 µM (inactive) and the GI50 (OVCAR-8) was 12.4 µM (inactive). The GI50 (RXF 393) was 21.4 µM (inactive), the GI50 (M19-MEL) was 7.59 µM (inactive) and the GI50 (OVCAR-4) was 17.2 µM (inactive). For the same compound, the GI50 (HT-29) was 11 µM (inactive), the GI50 (COLO 205) was 8.09 µM (inactive) and the GI50 (CCRF-CEM) was > 100 µM (inactive). The GI50 (SK-MEL-5) was 4.6 µM (inactive), the GI50 (RXF 631) was 16 µM (inactive) and the GI50 (IGROV-1) was 11.1 µM (inactive). For the same compound, the GI50 (HOP-18) was 6.73 µM (inactive), the GI50 (SR) was 35.2 µM (inactive) and the GI50 (SF-295) was 12.3 µM (inactive). For the same compound, the GI50 (NCI-H460) was 12 µM (inactive), the GI50 (SF-268) was 18.3 µM (inactive) and the GI50 (DLD-1) was 14.7 µM (inactive). The GI50 (SF-539) was 14.7 µM (inactive), the GI50 (ACHN) was 11.7 µM (inactive) and the GI50 (HOP-62) was 14.4 µM (inactive). For the same compound, the GI50 (UACC-257) was 13.7 µM (inactive), the GI50 (HCT-15) was 14.4 µM and the GI50 (CAKI-1) was 16.2 µM (inactive). For the same compound, the GI50 (HL-60) was 11.6 µM (inactive), the GI50 (XF498) was 17.1 µM (inactive) and the GI50 (OVCAR-3) was 19 µM (inactive). The GI50 (UACC-62) was 7.21 µM (inactive), the GI50 (HCC 2998) was 4.51 µM (inactive) and the GI50 (SW-620) was 13.3 µM (inactive). The GI50 (MOLT-4) was 26.1 µM (inactive), the GI50 (786-0) was 11.4 µM (inactive) and the GI50 (OVCAR-5) was 42 µM (inactive). The GI50 (K562) was 9.42 µM (inactive), the GI50 (SK-MEL-2) was 23.7 µM (inactive) and the GI50 (UO-31) was 29.6 µM (inactive). The GI50 (EKVX) was 12.8 µM (inactive), the GI50 (A498) was 28.2 µM (inactive) and the GI50 (HOP-92) was 24.8 µM (inactive). The GI50 (NCI-H522) was 11.6 µM (inactive), the GI50 (KM12) was 4.37 µM (inactive) and the GI50 (U-251) was 16.7 µM (inactive). For the same compound, the GI50 (Malme-3M) was 8.07 µM (inactive), the GI50 (SNB-75) was 16.5 µM (inactive) and the GI50 (SNB-78) was 30.8 µM (inactive). For the same compound, the GI50 (RPMI-8226) was 3.24 µM (inactive), the GI50 (SN12C) was 15.4 µM (inactive) and the GI50 (M14) was 13.6 µM (inactive). The GI50 (SNB-19) was 14.6 µM (inactive), the GI50 (NCI-H226) was 72.1 µM (inactive) and the GI50 (KM-20L2) was 25.2 µM (inactive).
